Patent publication US8802597B2, “Herbicidal pyrimidines” (E I du Pont de Nemours and Company, priority 2003, dated 2014)
Where two headings read alike, the source gives them in different places.

Experiments:
Assay in all cases: Test C pre/postemergence
Format in all cases: in vivo
corn (Zea mays) = details: Zea mays, pre-emergence, Preemergence, 250 g ai/ha; scale 0 to 100
Procedure, shortened: (§1)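 Seeds sown and sprayed preemergence with test compound in non-phytotoxic solvent containing surfactant; postemergence sprays, same formulation, went onto plants 2 to 18 cm tall (1- to 4-leaf stage). Plants held in greenhouse 12 to 14 days, then visually rated against untreated controls on a 0–100 scale (0 no effect, 100 complete control).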

[1] = system: Surinam grass (Brachiaria decumbens); details: Urochloa decumbens; for pest or weed control at 125 g/ha: 125 g ai/ha; for pest or weed control at 31 g/ha: 31 g ai/ha; for pest or weed control at 62 g/ha: 62 g ai/ha; for pest or weed control at 250 g/ha: 250 g ai/ha
Procedure, shortened: as §1

[2] = system: common (oilseed) sunflower (Helianthus annuus); details: Helianthus annuus, pre-emergence, Preemergence, read-out: Plant response rating, Sunflower
Procedure, shortened: as §1

[3] = system: crabgrass (Digitaria sanguinalis); details: Digitaria sanguinalis; for pest or weed control at 31 g/ha: 31 g ai/ha; for pest or weed control at 62 g/ha: 62 g ai/ha; for pest or weed control at 125 g/ha: 125 g ai/ha; for pest or weed control at 250 g/ha: 250 g ai/ha
Procedure, shortened: as §1

kochia (Kochia scoparia) = details: Bassia scoparia; for pest or weed control at 31 g/ha: 31 g ai/ha; for pest or weed control at 62 g/ha: 62 g ai/ha; for pest or weed control at 125 g/ha: 125 g ai/ha; for pest or weed control at 250 g/ha: 250 g ai/ha
Procedure, shortened: as §1

[4] = system: pigweed (Amaranthus retroflexus); details: Amaranthus retroflexus; for pest or weed control at 31 g/ha: 31 g ai/ha; for pest or weed control at 62 g/ha: 62 g ai/ha; for pest or weed control at 125 g/ha: 125 g ai/ha; for pest or weed control at 250 g/ha: 250 g ai/ha
Procedure, shortened: as §1

[5] = system: yellow nutsedge (Cyperus esculentus); details: Cyperus; for pest or weed control at 31 g/ha: 31 g ai/ha; for pest or weed control at 62 g/ha: 62 g ai/ha; for pest or weed control at 125 g/ha: 125 g ai/ha; for pest or weed control at 250 g/ha: 250 g ai/ha
Procedure, shortened: as §1

[6] = post-emergence, Postemergence, scale 0 to 100 (0 no effect, 100 complete control), read-out: Surinam Grass plant response rating
[7] = pre-emergence, Preemergence, scale 0 to 100, 0 no effect, 100 complete control, read-out: Plant response rating, Surinam Grass
[8] = pre-emergence, Preemergence, scale 0 to 100, read-out: Plant response rating, Surinam Grass
[9] = post-emergence, Postemergence, scale 0 to 100 (0 no effect, 100 complete control), read-out: Crabgrass plant response rating
[10] = pre-emergence, Preemergence, scale 0 to 100, 0 no effect, 100 complete control, read-out: Plant response rating, Crabgrass
[11] = pre-emergence, Preemergence, scale 0 to 100, read-out: Plant response rating, Crabgrass
[12] = post-emergence, Postemergence, scale 0 to 100 (0 no effect, 100 complete control), read-out: Kochia plant response rating
[13] = pre-emergence, Preemergence, scale 0 to 100, 0 no effect, 100 complete control, read-out: Plant response rating, Kochia
[14] = pre-emergence, Preemergence, scale 0 to 100, read-out: Plant response rating, Kochia
[15] = post-emergence, Postemergence, scale 0 to 100 (0 no effect, 100 complete control), read-out: Pigweed plant response rating
[16] = pre-emergence, Preemergence, scale 0 to 100, 0 no effect, 100 complete control, read-out: Plant response rating, Pigweed
[17] = pre-emergence, Preemergence, scale 0 to 100, read-out: Plant response rating, Pigweed
[18] = post-emergence, Postemergence, scale 0 to 100 (0 no effect, 100 complete control), read-out: Nutsedge, Yellow plant response rating
[19] = pre-emergence, Preemergence, scale 0 to 100, 0 no effect, 100 complete control, read-out: Plant response rating, Nutsedge, Yellow
[20] = pre-emergence, Preemergence, scale 0 to 100, read-out: Plant response rating, Nutsedge, Yellow

COC(=O)c1nc(C2CC2)nc(N)c1Br [Compound 2, methyl 6-amino-5-bromo-2-cyclopropyl-4-pyrimidinecarboxylate]
75%: pest or weed control at 31 g/ha (kochia (Kochia scoparia); [13])
40%: pest or weed control at 31 g/ha ([3]; post-emergence, Postemergence, read-out: Plant response rating (scale of 0 to 100), Crabgrass)
100%: pest or weed control at 62 g/ha ([2]; 62 g ai/ha, scale 0 to 100, 0 no effect, 100 complete control) | pest or weed control at 125 g/ha ([2]; 125 g ai/ha, scale 0 to 100) | pest or weed control at 250 g/ha ([2]; 250 g ai/ha, scale 0 to 100) | pest or weed control at 250 g/ha (kochia (Kochia scoparia); post-emergence, Postemergence, scale 0 to 100, read-out: Plant response rating, Kochia) | pest or weed control at 250 g/ha (kochia (Kochia scoparia); [14]) | pest or weed control at 250 g/ha ([4]; post-emergence, Postemergence, scale 0 to 100, read-out: Plant response rating, Pigweed) | pest or weed control at 250 g/ha [4, 17]
0%: Corn plant response rating (crop injury, 0 = no effect, 100 = complete kill) at 250 g/ha (corn (Zea mays)) | pest or weed control at 31 g/ha ([1]; post-emergence, Postemergence, read-out: Plant response rating (scale of 0 to 100), Surinam Grass) | pest or weed control at 31 g/ha [1, 7] | pest or weed control at 62 g/ha [1, 7] | pest or weed control at 125 g/ha [1, 8] | pest or weed control at 250 g/ha [1, 8] | pest or weed control at 31 g/ha [3, 10] | pest or weed control at 62 g/ha [3, 10] | pest or weed control at 125 g/ha [3, 11] | pest or weed control at 31 g/ha ([5]; post-emergence, Postemergence, read-out: Plant response rating (scale of 0 to 100), Nutsedge, Yellow) | pest or weed control at 62 g/ha [5, 18] | pest or weed control at 125 g/ha [5, 18] | pest or weed control at 31 g/ha [5, 19] | pest or weed control at 62 g/ha [5, 19] | pest or weed control at 125 g/ha [5, 20] | pest or weed control at 250 g/ha [5, 20]
95%: pest or weed control at 62 g/ha (kochia (Kochia scoparia); [12]) | pest or weed control at 125 g/ha (kochia (Kochia scoparia); [12]) | pest or weed control at 125 g/ha (kochia (Kochia scoparia); [14]) | pest or weed control at 125 g/ha [4, 15] | pest or weed control at 62 g/ha [4, 16] | pest or weed control at 125 g/ha [4, 17]
70%: pest or weed control at 250 g/ha ([1]; post-emergence, Postemergence, scale 0 to 100, read-out: Plant response rating, Surinam Grass) | pest or weed control at 250 g/ha ([3]; post-emergence, Postemergence, scale 0 to 100, read-out: Plant response rating, Crabgrass)
85%: pest or weed control at 31 g/ha (kochia (Kochia scoparia); post-emergence, Postemergence, read-out: Plant response rating (scale of 0 to 100), Kochia)
80%: pest or weed control at 62 g/ha [4, 15]
55%: pest or weed control at 62 g/ha [1, 6] | pest or weed control at 62 g/ha [3, 9]
20%: pest or weed control at 31 g/ha ([2]; 31 g ai/ha, scale 0 to 100, 0 no effect, 100 complete control) | pest or weed control at 250 g/ha ([5]; post-emergence, Postemergence, scale 0 to 100, read-out: Plant response rating, Nutsedge, Yellow)
50%: pest or weed control at 250 g/ha [3, 11]
65%: pest or weed control at 125 g/ha [1, 6] | pest or weed control at 31 g/ha ([4]; post-emergence, Postemergence, read-out: Plant response rating (scale of 0 to 100), Pigweed)
60%: pest or weed control at 125 g/ha [3, 9]
90%: pest or weed control at 62 g/ha (kochia (Kochia scoparia); [13]) | pest or weed control at 31 g/ha [4, 16]
